A word on the IC50: it is the concentration that inhibits the measured activity by half.

T1 sequence (P29317 whole entry): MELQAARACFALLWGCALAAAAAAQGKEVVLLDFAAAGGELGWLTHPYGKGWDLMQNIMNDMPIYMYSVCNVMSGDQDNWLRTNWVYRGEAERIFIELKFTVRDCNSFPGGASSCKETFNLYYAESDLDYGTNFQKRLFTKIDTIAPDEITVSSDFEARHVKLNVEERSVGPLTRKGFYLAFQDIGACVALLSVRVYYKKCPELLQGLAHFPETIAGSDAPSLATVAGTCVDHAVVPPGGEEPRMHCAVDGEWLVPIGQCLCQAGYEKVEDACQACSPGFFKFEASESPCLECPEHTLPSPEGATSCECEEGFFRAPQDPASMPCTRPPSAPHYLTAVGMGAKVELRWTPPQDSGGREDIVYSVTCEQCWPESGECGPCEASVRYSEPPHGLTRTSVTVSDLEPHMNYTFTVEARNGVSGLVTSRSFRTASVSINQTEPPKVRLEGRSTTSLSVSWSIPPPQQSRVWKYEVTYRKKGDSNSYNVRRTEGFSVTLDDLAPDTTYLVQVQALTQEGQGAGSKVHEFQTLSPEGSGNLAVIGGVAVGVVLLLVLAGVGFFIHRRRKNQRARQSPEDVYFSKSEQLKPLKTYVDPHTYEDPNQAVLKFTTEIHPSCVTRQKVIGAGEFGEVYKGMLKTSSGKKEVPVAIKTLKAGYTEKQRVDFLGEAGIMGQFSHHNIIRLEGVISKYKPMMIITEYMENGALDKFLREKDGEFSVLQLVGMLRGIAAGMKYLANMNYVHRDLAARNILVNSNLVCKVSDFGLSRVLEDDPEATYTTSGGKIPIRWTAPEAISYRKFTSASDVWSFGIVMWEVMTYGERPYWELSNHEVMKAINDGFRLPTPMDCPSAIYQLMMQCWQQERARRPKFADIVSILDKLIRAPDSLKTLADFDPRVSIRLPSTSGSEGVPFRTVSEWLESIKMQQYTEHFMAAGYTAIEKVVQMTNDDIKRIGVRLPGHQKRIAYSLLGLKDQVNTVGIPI

The first assay addresses T1, Ephrin type-A receptor 2 (Homo sapiens, UniProt P29317). Kind of assay: Antagonist activity at EphA2 in human PC3 cells assessed as inhibition of ephrin-A1-Fc-stimulated EphA2 phosphorylation pretreated for 20 mins by sandwich ELISA. Format: cell-based, PC-3. For orientation: An ELISA detects its analyte on a solid surface through an enzyme-linked reagent.
On to `C[C@H](CCC(=O)NCC(=O)O)[C@H]1CC[C@H]2[C@@H]3CC[C@@H]4C[C@H](O)CC[C@]4(C)[C@H]3CC[C@]12C` [LITHOGLYCOCHOLATE], for which the half-maximal inhibitory concentration (IC50) came out at 138 µM.

The next assay deals with T1, Ephrin type-A receptor 2. Kind of assay: Inhibition of ephrin-A1-Fc binding to EphA2-Fc receptor (unknown origin) after 1 hr by ELISA.
In turn, `C[C@H](CCC(=O)NCC(=O)O)[C@H]1CC[C@H]2[C@@H]3CC[C@@H]4C[C@H](O)CC[C@]4(C)[C@H]3CC[C@]12C` [LITHOGLYCOCHOLATE] showed a half-maximal inhibitory concentration (IC50) of 49 µM.

As to `C[C@H](CCC(=O)N[C@H](CC(=O)O)C(=O)O)[C@H]1CC[C@H]2[C@@H]3CC[C@@H]4C[C@H](O)CC[C@]4(C)[C@H]3CC[C@]12C`, the IC50 was more than 316 µM.

In turn, `C[C@H](CCC(=O)N[C@@H](CC(N)=O)C(=O)O)[C@H]1CC[C@H]2[C@@H]3CC[C@@H]4C[C@H](O)CC[C@]4(C)[C@H]3CC[C@]12C` gave an IC50 of more than 316 µM.

`C[C@H](CCC(=O)N[C@H](CC(N)=O)C(=O)O)[C@H]1CC[C@H]2[C@@H]3CC[C@@H]4C[C@H](O)CC[C@]4(C)[C@H]3CC[C@]12C`: the IC50 is more than 316 µM.

`C[C@H](CCC(=O)N[C@@H](CC(=O)O)C(=O)O)[C@H]1CC[C@H]2[C@@H]3CC[C@@H]4C[C@H](O)CC[C@]4(C)[C@H]3CC[C@]12C` had an IC50 of more than 316 µM.

As to `CC(=O)CNC(=O)CC[C@@H](C)[C@H]1CC[C@H]2[C@@H]3CC[C@@H]4C[C@H](O)CC[C@]4(C)[C@H]3CC[C@]12C`, the IC50 is more than 316 µM.

The record behind these values is ChEMBL document CHEMBL2321799 (J Med Chem, 2013).
